Experimental data published in patent publication US9403866B2, “Compositions and methods for increasing telomerase activity” (Telomerase Activation Sciences, Inc., priority 2009, dated 2016).

Tests used:
telomerase [1] = molecular target: T1, telomerase (Homo sapiens, UniProt O14746); experiment: Telomerase activation in short-term liquid culture of human bone marrow-derived CD34+ hematopoietic progenitor cells (gel-TRAP); type: cell-based; details: huCD34+ cells, 100 nM, 3 days
Method: Human bone marrow-derived CD34+ hematopoietic progenitor cells were obtained from a healthy donor.
Human bone marrow-derived CD34+ hematopoietic progenitor cells were grown in Iscove's Modified Dulbecco's Medium (IMDM) (Invitrogen, CA)+10% fetal bovine serum (FBS) for 3 days in the presence of compound 4 (1 uM, 100 nM, 10 nM), vehicle (1% DMSO), or nothing. Telomerase activity increased by ˜60-70% in the 100 nM compound 4 sample relative to the vehicle control (as assessed by traditional gel-TRAP assay).

huCD34+ cells = experiment: Colony formation assay of huCD34+ cells; type: cell-based, human; details: 100 nM, 14 days
Method: Human hematopoietic progenitor CD34+ cells (healthy donor) were plated into a standard colony formation assay in the presence of compound 4 (100 nM), vehicle (0.1% DMSO), or nothing. After 14 days, hematopoietic colonies were enumerated (CFU-E, […], CFU-GM, and CFU-GEMM). The plates containing compound 4 had 17% more colony forming units than vehicle alone. (Total colony counts were: untreated, 106.5; vehicle-treated, 103.5; compound 4-treated, 121.5)

telomerase [2] = molecular target: T2, telomerase (Mus musculus, UniProt O70372); experiment: Telomerase activity in short-term liquid culture, lineage-depleted bone marrow cells from wild type mice; type: cell-based; details: 100 nM and 1 uM, three days
T2 construct: endogenous in cells; host or cells: lineage-depleted bone marrow cells, wild-type mice
T2 sequence (O70372 1-1122): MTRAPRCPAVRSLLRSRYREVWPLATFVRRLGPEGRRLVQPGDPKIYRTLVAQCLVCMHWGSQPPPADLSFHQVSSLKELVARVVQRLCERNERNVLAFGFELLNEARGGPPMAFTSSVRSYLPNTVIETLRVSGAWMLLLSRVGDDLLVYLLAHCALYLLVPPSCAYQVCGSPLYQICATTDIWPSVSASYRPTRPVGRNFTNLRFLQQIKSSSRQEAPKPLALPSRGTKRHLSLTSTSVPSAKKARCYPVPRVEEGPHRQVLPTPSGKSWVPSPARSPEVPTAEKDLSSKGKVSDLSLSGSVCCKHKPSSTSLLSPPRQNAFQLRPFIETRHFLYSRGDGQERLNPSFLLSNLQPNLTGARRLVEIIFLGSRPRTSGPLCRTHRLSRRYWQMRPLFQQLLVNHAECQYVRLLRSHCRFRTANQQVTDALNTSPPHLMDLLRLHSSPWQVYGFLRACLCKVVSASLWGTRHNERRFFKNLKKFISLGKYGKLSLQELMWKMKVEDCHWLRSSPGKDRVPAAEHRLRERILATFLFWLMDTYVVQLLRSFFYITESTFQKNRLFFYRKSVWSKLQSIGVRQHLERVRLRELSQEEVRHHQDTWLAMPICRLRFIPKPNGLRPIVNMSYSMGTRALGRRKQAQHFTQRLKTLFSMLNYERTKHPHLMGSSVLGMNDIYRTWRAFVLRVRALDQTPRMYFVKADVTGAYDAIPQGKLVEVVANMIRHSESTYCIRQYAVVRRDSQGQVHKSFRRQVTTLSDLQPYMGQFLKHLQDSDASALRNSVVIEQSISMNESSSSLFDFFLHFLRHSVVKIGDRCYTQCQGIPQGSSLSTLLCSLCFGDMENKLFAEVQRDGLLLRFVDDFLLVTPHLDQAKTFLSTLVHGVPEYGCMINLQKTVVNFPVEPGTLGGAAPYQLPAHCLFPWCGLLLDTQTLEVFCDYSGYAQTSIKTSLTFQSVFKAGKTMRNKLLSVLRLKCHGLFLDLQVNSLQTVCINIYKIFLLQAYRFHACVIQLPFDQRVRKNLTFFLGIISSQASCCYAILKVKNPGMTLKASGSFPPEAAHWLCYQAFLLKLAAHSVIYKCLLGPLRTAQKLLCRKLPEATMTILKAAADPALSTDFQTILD
Method: (§1) Lineage-depleted bone marrow cells from mTERT heterozygous and wild type mice were grown in IMDM+15% FBS containing stem cell factor (Kitl), IL-3, and IL-11 for three days in the presence of compound 4 (1 uM, 100 nM, or 10 nM), vehicle (0.1% DMSO), or nothing. Telomerase activity in the wild-type cells increased by 40-50% when treated with 100 nM and 1 uM compound 4, relative to the vehicle-treated control.

telomerase [3] = molecular target: T2, telomerase; experiment: Telomerase activity in short-term liquid culture, lineage-depleted bone marrow cells from mTERT heterozygous mice; type: cell-based; details: 1 uM, three days
Method: as §1
Telomerase activity in the mTERT heterozygous cells increased by 50% when treated with 1 uM compound 4, relative to the vehicle-treated control.

Matrigel plugs = experiment: Administration to BALB/c mice: total RNA and capillary density in Matrigel plugs; type: in vivo; details: 10 mg/kg/day PO (BID)
Method: BALB/c mice (2-3 months) were dosed with compound 4 in 2% ethanol at 10 mg/kg/day PO (BID). Mice were pre-dosed for 1 day (Day −1). Matrigel™ (BDBiosciences, California) was injected subcutaneously in the abdomen on Day 0, and the Matrigel™ plugs were harvested on Day 12.
Total RNA, which reflects cell number, was increased 1.6-fold (p<0.2) n=5/group in Matrigel™ plugs after treatment with compound 4.
The other half of the Matrigel™ plug was used for histology and CD31 immunostaining to analyze capillary density (CD31 is a marker for endothelial cells, which line the capillaries). A 1.3-fold increase in capillary density in (CD-31 immuno staining) (p<0.5) n=5/group was observed after treatment with compound 4.

telomerase [4] = molecular target: T1, telomerase; experiment: Keratinocyte cell/TRAP assay (HEKneo-P cells); type: cell-based; set-up: host or cells: HEKneo-P (pooled neonatal human epidermal keratinocytes); details: telomerase activation
Source text: Harley et al., U.S. Pat. […] Harley et al., U.S. Pat. […] Non-treatment control (NT) was also included. […]

T1 sequence (O14746 whole entry): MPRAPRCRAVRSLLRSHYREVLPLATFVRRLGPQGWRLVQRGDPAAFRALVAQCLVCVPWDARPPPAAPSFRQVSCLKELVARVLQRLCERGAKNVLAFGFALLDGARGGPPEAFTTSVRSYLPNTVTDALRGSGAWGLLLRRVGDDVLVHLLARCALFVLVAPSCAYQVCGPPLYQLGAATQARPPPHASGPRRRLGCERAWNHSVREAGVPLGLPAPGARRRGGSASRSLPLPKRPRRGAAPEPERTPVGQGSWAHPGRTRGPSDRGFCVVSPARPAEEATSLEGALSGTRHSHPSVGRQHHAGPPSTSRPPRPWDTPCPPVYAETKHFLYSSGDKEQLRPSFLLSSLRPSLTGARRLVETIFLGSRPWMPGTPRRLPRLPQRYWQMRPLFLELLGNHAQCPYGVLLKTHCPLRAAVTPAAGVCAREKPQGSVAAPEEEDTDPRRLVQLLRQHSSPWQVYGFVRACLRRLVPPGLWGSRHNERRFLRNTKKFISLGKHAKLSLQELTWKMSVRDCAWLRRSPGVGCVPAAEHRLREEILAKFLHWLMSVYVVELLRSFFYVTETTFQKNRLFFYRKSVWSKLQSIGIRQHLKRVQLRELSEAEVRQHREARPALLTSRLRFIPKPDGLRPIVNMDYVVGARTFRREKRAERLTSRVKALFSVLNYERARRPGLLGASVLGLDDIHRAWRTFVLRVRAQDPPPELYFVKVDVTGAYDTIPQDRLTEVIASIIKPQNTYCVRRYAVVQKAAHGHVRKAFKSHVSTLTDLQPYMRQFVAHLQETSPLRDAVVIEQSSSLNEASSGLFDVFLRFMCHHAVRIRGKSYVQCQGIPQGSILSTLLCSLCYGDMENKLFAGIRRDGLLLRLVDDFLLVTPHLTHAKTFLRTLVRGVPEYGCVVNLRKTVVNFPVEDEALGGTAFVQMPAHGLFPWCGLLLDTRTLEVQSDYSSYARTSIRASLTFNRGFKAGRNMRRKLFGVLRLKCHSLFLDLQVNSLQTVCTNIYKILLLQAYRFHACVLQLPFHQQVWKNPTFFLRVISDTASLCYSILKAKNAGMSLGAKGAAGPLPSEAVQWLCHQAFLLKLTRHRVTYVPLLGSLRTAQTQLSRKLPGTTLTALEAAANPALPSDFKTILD

CC(C)C(N)C(=O)OC1CCC23CC24CCC2(C)C(C5(C)CCC(C(C)(C)O)O5)C(O)CC2(C)C4CC(O)C3C1(C)C (stereo not drawn) [Compound 4, 2-(L)-Amino-3-methyl-butyric acid 6α,16β-dihydroxy-17-[5-(1-hydroxy-1-methyl-ethyl)-2-methyl-tetrahydro-furan-2-yl]-4,4,13,14-tetramethyl-tetradecahydro-cyclopropa[9,10]cyclopenta[a]phenanthren-3β-yl ester]
Telomerase activity increase relative to the vehicle control (telomerase [1]): 60-70% | BFU-E colonies (huCD34+ cells): 25.5 | CFU-E colonies (huCD34+ cells): 11 | CFU-GEMM colonies (huCD34+ cells): 5 | CFU-GM colonies (huCD34+ cells): 80 | Total colony counts (huCD34+ cells): 121.5 | more colony forming units than vehicle alone (huCD34+ cells): 17% | Telomerase activity increase relative to the vehicle-treated control (telomerase [2]): 40-50% | Telomerase activity increase relative to the vehicle-treated control (telomerase [3]): 50% | Total RNA (reflects cell number) increase in Matrigel plugs (Matrigel plugs; Day 12, p<0.2): 1.6 fold | increase in capillary density (CD-31 immuno staining) (Matrigel plugs; Day 12, p<0.5): 1.3 fold | EC50 (telomerase [4]): 6 to 22 nM
